Data as given in patent US20220160908A1, “CHELATORS AND METHODS OF MAKING AND USING SAME” (The University Of British Columbia, priority 2019, published 2022).
Read-outs that look alike come from different tables or passages of the source.

Columns and labels:
[1] = cited from earlier work
[2] = Protonation constants by combined potentiometric-spectrophotometric titrations; assay type: physicochemical; settings: 25° C., l = […] (NaCl)
Source text: The basicity of different ionizable and non-ionizable protons determine the extent of the competition between the metal ion and the protons to the binding sites of the chelator during metal complexation. Therefore, protonation constants must be considered when evaluating the chelator. […] The remaining four protonation constants were not determined as these sites deprotonated at a pH below the electrode threshold. As a result but without being bound by theory, during metal complexation which preferably occurs at or near physiological pH for pharmaceutical purposes, competition from those protonation processes would be negligible.
FIGS. 4A, 4B and 4C show the absorption bands of the species involved in the protonation equilibria mentioned above at different pH, while Table 2 presents the protonation constants calculated from the experimental data using the HypSpec2014^25 and Hyperquad2013^26 programs. The speciation plots of different species of H4py4pa in FIG. 4D were calculated from the protonation constants in Table 2 with Hyss software.^27
All potentiometric titrations were carried out with a Metrohm Titrando 809 and a Metrohm Dosino 800 with a Ross combined electrode. A 20 mL and 25° C. thermostated glass cell with an inlet-outlet tube for nitrogen gas (purified through a 10% NaOH solution to exclude any CO2 prior to and during the course of the titration) was used as a titration cell. The electrode was calibrated daily in hydrogen ion concentration by direct titration of HCl with freshly prepared NaOH solution and the results were analyzed with Gran procedure^29 in order to obtain the standard potential E° and the ionic product of water pKw at 25° C. and 0.16 M NaCl as a supporting electrolyte. Solutions were titrated with carbonate-free NaOH (0.16 M) that was standardized against freshly recrystallized potassium hydrogen phthalate.
In the study of complex formation equilibria, the determination of the stability constant of [La(H4py4pa)] species was carried out by two different methods. The first method used UV-Vis spectrophotometric measurements on a set of solutions containing 1:1 metal to ligand molar ratio ([H4py4pa]=[M]^3+˜1.33×10^−4 M) and different amounts of HCl in the spectral range 200-400 nm at 25° C. and 1 cm path length. The molar absorptivities of all the protonated species of H4py4pa calculated with HypSpec2014^25 from the protonation constant experiments were included in the calculations. […] The stability constants for the complexes formed by H4edta and La^3+ were taken from literature.^31 Direct pH-potentiometric titrations of the La^3+-H4py4pa system were also carried out. Metal solution was prepared by adding the atomic absorption (AA) standard metal ion solution to a H4py4pa solution of known concentration in the 1:1 metal to ligand molar ratio for La(III). Ligand and metal concentrations were in the range of 0.6-0.8×10^−4 M. The exact amount of acid present in the atomic standard metal solutions standards was determined by Gran's method^29 titrating equimolar solutions of La(III) and Na2H2-EDTA. […] Three replicates of each titration were performed for each system. Relying on the stability constant for the species La(Hpy4pa) obtained by the two different methods, the fitting of the direct potentiometric titrations was possible and yielding the stability constants in Table 3. All the potentiometric measurements were processed using the Hyperquad2013 software^26 while the obtained spectrophotometric data were processed with the HypSpec2014^25 program. Proton dissociation constants corresponding to hydrolysis of La(III) aqueous ion included in the calculations were taken from Baes and Mesmer.^32 The overall equilibrium (formation) constants log β referred to the overall equilibria: pM+qH+rL ⇄MpHqLr (the charges are omitted), where p might also be 0 in the case of protonation equilibria and q can be negative for hydroxide species. […]

[3] = Complex formation equilibria with La(III): stability constants and pM; assay type: physicochemical
[4] = ligand-ligand potentiometric competition with EDTA at l = […] (NaCl) and 25° C.
[5] = potentiometric titrations at l = […] (NaCl) and 25° C.

O=C(O)c1cccc(CN2CCOCCOCCN(Cc3cccc(C(=O)O)n3)CCOCCOCC2)n1 [Compound H2macropa, N,N′-bis[(6-carboxy-2-pyridil)methyl]-4,13-diaza-18-crown-6]
log K[La(macropa)] ([1]; 25° C., l=0.1 M (KCl)): 14.99

O=C(O)c1cccc(CN(Cc2cccc(CN(Cc3cccc(C(=O)O)n3)Cc3cccc(C(=O)O)n3)n2)Cc2cccc(C(=O)O)n2)n1 [Compound H4py4pa]
log K, H2L^2− + H^+ ⇌ H3L^− (pK9) [2]: 4.06 (2) | log K, H3L^− + H+ ⇌ H4L (pK8) [2]: 3.58 (2) | log K, H4L + H^+ ⇌ H5L^+ (pK7) [2]: 2.71 (3) | log K, H5L^+ + H^+ ⇌ H6L^2+ (pK6) [2]: 2.55 (4) | log K, H6L^2+ + H^+ ⇌ H7L^3+ (pK5) [2]: 2.31 (4) | log K, HL^3− + H^+ ⇌ H2L^2− (pK10) [2]: 6.07 (1) | log K, L^4− + H^+ ⇌ HL^3− (pK11) [2]: 6.96 (1) | log β, H2L^2− + H^+ ⇌ H3L^− [2]: 17.09 (2) | log β, H3L^− + H+ ⇌ H4L [2]: 20.67 (2) | log β, H4L + H^+ ⇌ H5L^+ [2]: 23.38 (3) | log β, H5L^+ + H^+ ⇌ H6L^2+ [2]: 25.93 (4) | log β, H6L^2+ + H^+ ⇌ H7L^3+ [2]: 28.24 (4) | log β, HL^3− + H^+ ⇌ H2L^2− [2]: 13.03 (1) | log β, L^4− + H^+ ⇌ HL^3− [2]: 6.96 (1) | pM (La^3+) ([3]; -log [M]free at [L] = 10 μM, [M] = 1 μM and pH = 7.4): 21.0 | log K, ML + H^+ ⇌ MHL ([3]; in-batch acidic spectrophotometric competition at 25° C., not evaluated at constant l): 4.01(5) | log K, M(OH)L + H^+ ⇌ ML [3, 4]: 9.94(3) | log K, ML + H^+ ⇌ MHL [3, 4]: 3.78(4) | log K, M^3+ + L ⇌ ML [3, 4]: 20.37(2) | log K, M(OH)L + H^+ ⇌ ML [3, 5]: 9.96(4) | log K, M^3+ + L ⇌ ML [3, 5]: 20.33(3)

O=C(O)CN1CCN(CC(=O)O)CCN(CC(=O)O)CCN(CC(=O)O)CC1 [DOTA, 1,4,7,10-tetraazacyclododecane-1,4,7,10-tetraacetic acid]
log K[La(DOTA)] ([1]; 25° C.): 24.25 | pM (La^3+) ([1]; -log [M]free at [ligand]=10 μM, [M]=1 μM, pH=7.4): 19.2
